# Results as given in paper PMC8038958 (The AAPS Journal, 2021).
# Test: Population pharmacokinetic analysis (NONMEM, two-compartment model) of vancomycin serum concentrations from routine TDM
# [1] = structural base model without covariates, estimate (RSE %)
smiles,measurement,setting,value
CN[C@H](CC(C)C)C(=O)N[C@H]1C(=O)N[C@@H](CC(N)=O)C(=O)N[C@H]2C(=O)N[C@H]3C(=O)N[C@H](C(=O)N[C@H](C(=O)O)c4cc(O)cc(O)c4-c4cc3ccc4O)[C@H](O)c3ccc(c(Cl)c3)Oc3cc2cc(c3O[C@@H]2O[C@H](CO)[C@@H](O)[C@H](O)[C@H]2O[C@H]2C[C@](C)(N)[C@H](O)[C@H](C)O2)Oc2ccc(cc2Cl)[C@H]1O [Vancomycin],estimated exponent of TBW on V1 and V2,"alternative model with power function instead of linear TBW, not retained",1.05
same,CL,"structural base model without covariates, 1892 children 1-18 years, normal weight, overweight, obese, intermittent i.v. infusion, estimate (RSE %)",2.17 (2) L/h
same,Q (inter-compartmental clearance between V1 and V2),[1],2.24 (4) L/h
same,V1 (volume of distribution of central compartment),[1],5.27 (8) L
same,V2 (volume of distribution of the peripheral compartment),[1],11.9 (8) L
